Laboratory results taken from patent publication US12103924B2, “Mitogen-activated protein kinase kinase (MEK) degradation compounds and methods of use” (Icahn School of Medicine at Mount Sinai, priority 2020, dated 2024).

What follows are compounds tested on HT-29 cells (assay: MTT cell viability assay, HT-29). Settings: Homo sapiens, 72 h, MTT assay, 3 d treatment, serial dilutions.
Format: cell-based
Description: MTT assay was conducted for HT-29 cells after 3 d treatment with indicated compounds with serial dilutions.
MTT assay was conducted for HT-29 (A) and SK-MEL-28 (B) cells after 3 d treatment with DMSO or indicated compounds with serial dilutions. Clonogenic assay was performed in HT-29 (C) and SK-MEL-28 (D) cells for 14 d treatment with DMSO or indicated compounds with 10, 30 and 100 nM, in duplicate, respectively. Cells were then stained by crystal violet.
Cells (2000 cells per well) were seeded into 96-well microplates. After 20 h, cells were treated with 0.1% DMSO or indicated serial dilutions of compounds in duplicate or triplicate for 3 days. Cell viability was tested using MTT (M6494, Thermo Fisher Scientific) or WST-8 reagent (CK04, Dojindo). Briefly, 12 mM MTT was prepared in PBS or WST-8 reagent was warmed up to room temperature. 20 μL MTT or CCK-8 was then added to each well and the plates were kept in incubator at 37° C. for 3 h in the dark. For the WST-8 assay, signal was obtained after the incubation. For the MTT assay, cell medium was replaced with 200 μL of DMSO after the incubation, and then cell plates were kept at 37° C. for another 30 min. Absorbance signals for MTT and WST-8 were read at 540 nm and 450 nm respectively, with 690 nm as reference performed with Infinite F PLEX plate reader (TECAN, Morrisville, NC, USA). GI50 values were analyzed using GraphPad Prism 8 from the data of at least three independent experiments.
HT-29 or SK-MEL-28 cells (300 cells per well) were seeded in 12-well plates. After 20 h, cells were treated with DMSO or indicated concentrations of compounds in duplicate for two weeks. Medium containing indicated compounds was changed every 3 days. Cells were then fixed and stained with the solution containing 6% (v/v) glutaraldehyde (G5882, Sigma-Aldrich) and 0.5% (w/v) crystal violet for 1 h. To remove the background color, the plates with stained cells were immersed in running water until clear colonies were observed. The plates were dried at RT. The staining images were obtained with Epson Perfection V600 Photo.

Row | SMILES | GI50 [µM]
1 | Cc1ncsc1-c1ccc(CNC(=O)[C@@H]2C[C@@H](O)CN2C(=O)[C@@H](NC(=O)CCCCNCCCONC(=O)c2ccc(F)c(F)c2Nc2ccc(I)cc2F)C(C)(C)C)cc1 [CPD-007, (2S,4R)-1-((S)-14-(tert-Butyl)-1-(3,4-difluoro-2-((2-fluoro-4-iodophenyl)amino)phenyl)-1,12-dioxo-3-oxa-2,7,13-triazapentadecan-15-oyl)-4-hydroxy-N-(4-(4-methylthiazol-5-yl)benzyl)pyrrolidine-2-carboxamide] | 3 ± 0.5
2 | Cc1ncsc1-c1ccc(CNC(=O)[C@@H]2C[C@@H](O)CN2C(=O)[C@@H](NC(=O)CCOCCOCCNCCCONC(=O)c2ccc(F)c(F)c2Nc2ccc(I)cc2F)C(C)(C)C)cc1 [CPD-004, (2S,4R)-1-((S)-18-(tert-Butyl)-1-(3,4-difluoro-2-((2-fluoro-4-iodophenyl)amino)phenyl)-1,16-dioxo-3,10,13-trioxa-2,7,17-triazanonadecan-19-oyl)-4-hydroxy-N-(4-(4-methylthiazol-5-yl)benzyl)pyrrolidine-2-carboxamide] | 1.6 ± 0.3
3 | Cc1ncsc1-c1ccc(CNC(=O)[C@@H]2C[C@@H](O)CN2C(=O)[C@@H](NC(=O)CCOCCOCCOCCOCCNCCCONC(=O)c2ccc(F)c(F)c2Nc2ccc(I)cc2F)C(C)(C)C)cc1 [CPD-017, (2S,4R)-1-((S)-24-(tert-butyl)-1-(3,4-difluoro-2-((2-fluoro-4-iodophenyl)amino)phenyl)-1,22-dioxo-3,10,13,16,19-pentaoxa-2,7,23-triazapentacosan-25-oyl)-4-hydroxy-N-(4-(4-methylthiazol-5-yl)benzyl)pyrrolidine-2-carboxamide] | 1.7 ± 0.1
4 | Cc1ncsc1-c1ccc(CNC(=O)[C@@H]2C[C@@H](O)CN2C(=O)[C@@H](NC(=O)CCCCCCCNCCCONC(=O)c2ccc(F)c(F)c2Nc2ccc(I)cc2F)C(C)(C)C)cc1 [CPD-011, (2S,4R)-1-((S)-17-(tert-butyl)-1-(3,4-difluoro-2-((2-fluoro-4-iodophenyl)amino)phenyl)-1,15-dioxo-3-oxa-2,7,16-triazaoctadecan-18-oyl)-4-hydroxy-N-(4-(4-methylthiazol-5-yl)benzyl)pyrrolidine-2-carboxamide] | 0.5 ± 0.2
5 | Cc1ncsc1-c1ccc(CNC(=O)[C@@H]2C[C@@H](O)CN2C(=O)[C@@H](NC(=O)CCOCCNCCCONC(=O)c2ccc(F)c(F)c2Nc2ccc(I)cc2F)C(C)(C)C)cc1 [CPD-003, (2S,4R)-1-((S)-15-(tert-Butyl)-1-(3,4-difluoro-2-((2-fluoro-4-iodophenyl)amino)phenyl)-1,13-dioxo-3,10-dioxa-2,7,14-triazahexadecan-16-oyl)-4-hydroxy-N-(4-(4-methylthiazol-5-yl)benzyl)pyrrolidine-2-carboxamide] | 4.8 ± 0.7
6 | Cc1ncsc1-c1ccc(CNC(=O)[C@@H]2C[C@@H](O)CN2C(=O)[C@@H](NC(=O)CCOCCOCCOCCNCCCONC(=O)c2ccc(F)c(F)c2Nc2ccc(I)cc2F)C(C)(C)C)cc1 [CPD-016, (2S,4R)-1-((S)-21-(tert-butyl)-1-(3,4-difluoro-2-((2-fluoro-4-iodophenyl)amino)phenyl)-1,19-dioxo-3,10,13,16-tetraoxa-2,7,20-triazadocosan-22-oyl)-4-hydroxy-N-(4-(4-methylthiazol-5-yl)benzyl)pyrrolidine-2-carboxamide] | 3.3 ± 0.6
7 | Cc1ncsc1-c1ccc(CNC(=O)[C@@H]2C[C@@H](O)CN2C(=O)[C@@H](NC(=O)CCCCCNCCCONC(=O)c2ccc(F)c(F)c2Nc2ccc(I)cc2F)C(C)(C)C)cc1 [CPD-009, (2S,4R)-1-((S)-15-(tert-butyl)-1-(3,4-difluoro-2-((2-fluoro-4-iodophenyl)amino)phenyl)-1,13-dioxo-3-oxa-2,7,14-triazahexadecan-16-oyl)-4-hydroxy-N-(4-(4-methylthiazol-5-yl)benzyl)pyrrolidine-2-carboxamide] | 2.1 ± 0.1
